# Where two headings read alike, the source gives them in different places.
# Key:
# [1] = test system: human articular chondrocytes; assay: Radioimmunoassay of cartilaginous proteoglycans (PG) produced in tridimensional culture of human chondrocytes; type: cell-based; conditions: for PG in the clusters over 12 days: 0-12 days
# Excerpt: The model used for testing the proanthocyanidols, namely the tridimensional culture of human chondrocytes allows chondrorepair to be quantified by the production of matrix substances: type II collagen, proteoglycans, and chondroresorption by the reduction in the levels of prostaglandin E2 and of OH° and O°2 type free radicals produced.
# 1. Tridimensional culture of human chondrocytes
# The technique used has been described in detail (Bassleer et al., 1986).
# Briefly, human articular chondrocytes are cultivated in DMEM (Dulbecco's Modification of Eagle's Medium--ICN--Gand, Belgium) with either Ultroser G 1% (GIBCO, Gand, Belgium) or 10% of foetal calf serum (ICN--Gand--Belgium), and 50 μg of ascorbic acid/ml added to it. The cartilage originates from the apparently normal zone of heads of human femur suffering from arthrosis, immediately after an operation carried out to insert a total hip prosthesis; it can also originate from the head of a healthy femur, but which has undergone a traumatism and has had to be replaced. This cartilage is then digested by clostridial collagenase 1 mg/ml (Boehringer-Mannheim, Germany) in a buffer (NaCl 120 mM, CaCl2 1 mM, KCl 5 mM, KH2 PO4 1 mM, NaHCO3 25 mM, glucose 2 mM and Hepes 30 mM, pH 7.4) for 24 hours. After 6 successive washings and centrifugations, the chondrocytes, isolated from their matrix, are cultured in flasks (10^6 cells/2 ml of culture medium) placed on a gyrator (10 rpm). The cultures are kept at 37° C. in an atmosphere of air 95%-CO2 5% (Bassleer et al., 1986). Cultivated under these conditions, after 4 to 5 days the chondrocytes form a tridimensional cluster in each flask. These clusters, which at first have a flocculent appearance, then tend to condense during the culture. After two weeks, their diameter is, in general, from 1 to 2 mm.
# The fresh weight of the clusters increases with the duration of the culture, above all during the few first days.
# 2. Radioimmunoassay of cartilaginous proteoglycans (PG)
# The PGs are measured with a radioimmunoassay (RIA) which is specific and sensitive to human cartilaginous PGs (Gysen et al. 1984). The PGs were extracted from human cartilage, according to the methods described by Roughley et al., (1981) and by Bayliss and Venn (1980). The antiserum against the cartilaginous PGs was obtained from the rabbit according to the technique of Vaitukaitis et al. (1971). The radioimmunoassay is carried out in a 0.4 ml volume consisting of 0.1 ml of tracer solution (15000 to 20000 cpm ^125 I-PG, labelled by the chloramine T method (Greenwood, 1973). 0.1 ml of anti-PG antiserum diluted to 1/5000 in phosphate-buffered saline (PBS-50 mM PO4, 150 mM NaCl ), containing BSA (5 g/l bovine serum albumin and 6.7 mM sodium azide) (incubation buffer) and 0.2 ml of several dilutions of the culture medium or of the cluster extract or also of the antigen (0.5 -500 ng/tube).
# After four days at 4° C., the free PGs* (radioactive PGs) are separated from the PG*-antibody complexes by double precipitation (Franchimont et al., 1983).
# The sensitivity of the assay is 0.6 ng/tube. The accuracy of measurement is of the order of 4%. The coefficients of the intra- and inter assay variation are less than 10% and 20% respectively.
# The antibodies are directed against the antigenic determinants of the central protein of PG. There is a complete crossed reaction with human PGs of cartilage from the ribs, vertebral disks and trachea, even with PGs extracted from veins or arteries. There is no cross reaction with glycosaminoglycans or with PGs extracted from foetal tissues or the small PGs from bone.
# The PGs are measured directly in the culture medium. As for the chondrocyte clusters, they are washed 3 times in a phosphate-buffered saline (PBS-50 mM PO4, 150 mM NaCl pH 7.4) containing protease inhibitors (Oegema et al., 1975:100 mM 6-aminohexanoic acid, 10 mM EDTA, 50 mM benzamidine hydrochloride, 5.10^-8 M trypsin inhibitor, 6.7 mM sodium azide and 200 U/ml superoxide dismutase). […]
# [2] = Production of OH° hydroxyl radicals (gamma irradiation, KMB substrate, ethylene by gas chromatography); type: biochemical; conditions: for % inhibition of the production of hydroxyl radicals: Substrate: KMB, relative to the controls
# Protocol: 8. Production of OH° hydroxyl radicals
# The products are dissolved in 10 ml flasks at the required concentration in phosphate buffer: 6.6.10^-2 M, pH 7.4 in the presence of alpha keto methiolbutyric acid (10^-3 M: KMB). After the flasks have been hermetically sealed, the samples are irradiated with gamma rays provided by a ^137 Cs source.
# The OH° radicals produced by the gamma radiation react with the KMB to produce the ethylene detected by a gas chromatograph. The height of the ethylene peak is proportional to the quantity of free radicals formed in the medium (Weis et al., 1978).
# ferricytochrome C = assay: Control experiments: direct reduction of ferricytochrome C by the product itself; type: biochemical; conditions: effect not quantifiable
# Excerpt: This effect not being quantifiable, no conclusion can consequently be drawn on a possible inhibiting effect of these products on the production of the superoxide anion by the activated PMNs.
compound,measurement,setting,value
"Oc1cc(O)c2c(c1)O[C@H](c1cc(O)c(O)c(O)c1)[C@@H](O)[C@@H]2c1c(O)cc(O)c2c1O[C@H](c1cc(O)c(O)c(O)c1)[C@@H](O)[C@@H]2c1c(O)cc(O)c2c1O[C@H](c1cc(O)c(O)c(O)c1)[C@@H](O)C2 [Substance Ic, GC-(4 alpha→8) GC-(4 a→8)-GC]",PG in the clusters over 12 days,"[1]; 1% Ultroser G, 1 μg/ml",886 ± 114 ng/μg DNA
same,PG in the clusters over 12 days,"[1]; 1% Ultroser G, 10 μg/ml",1046 ± 74 ng/μg DNA
same,PG in the clusters over 12 days,"[1]; 1% Ultroser G, 100 μg/ml",1184 ± 33 ng/μg DNA
same,"PGs released in the culture medium, effect in words","[1]; 1% Ultroser G, 1 μg/ml",significant effect
same,PGs released in the culture medium,"[1]; 1% Ultroser G, culture time 0-4 days, 1 μg/ml",15.9 ± 1.15 μg/μg DNA/96 h
same,PGs released in the culture medium,"[1]; 1% Ultroser G, culture time 0-4 days, 10 μg/ml",19.1 ± 1.2 μg/μg DNA/96 h
same,PGs released in the culture medium,"[1]; 1% Ultroser G, culture time 0-4 days, 100 μg/ml",21.1 ± 1.0 μg/μg DNA/96 h
same,PGs released in the culture medium,"[1]; 1% Ultroser G, culture time 4-8 days, 1 μg/ml",3.7 ± 0.15 μg/μg DNA/96 h
same,PGs released in the culture medium,"[1]; 1% Ultroser G, culture time 4-8 days, 10 μg/ml",4.4 ± 0.52 μg/μg DNA/96 h
same,PGs released in the culture medium,"[1]; 1% Ultroser G, culture time 4-8 days, 100 μg/ml",4.9 ± 0.45 μg/μg DNA/96 h
same,PGs released in the culture medium,"[1]; 1% Ultroser G, culture time 8-12 days, 1 μg/ml",1.32 ± 0.7 μg/μg DNA/96 h
same,PGs released in the culture medium,"[1]; 1% Ultroser G, culture time 8-12 days, 10 μg/ml",1.53 ± 0.15 μg/μg DNA/96 h
same,PGs released in the culture medium,"[1]; 1% Ultroser G, culture time 8-12 days, 100 μg/ml",1.75 ± 0.05 μg/μg DNA/96 h
same,"Proteoglycans released during the 12 days of culture, Abs","[1]; 1% Ultroser G, cumulative, 1 μg/ml",20.9 μg/μg DNA/12 days
same,"Proteoglycans released during the 12 days of culture, Abs","[1]; 1% Ultroser G, cumulative, 10 μg/ml",25 μg/μg DNA/12 days
same,"Proteoglycans released during the 12 days of culture, Abs","[1]; 1% Ultroser G, cumulative, 100 μg/ml",27.8 μg/μg DNA/12 days
same,"Concentrations of PG in the clusters, effect in words","[1]; 1% Ultroser G, three concentrations studied",significantly stimulated and in a dose-dependent way
same,activity at 1 µg/mL,"[1]; Homo sapiens, Chondrocyte, 288 h, 1% Ultroser G, cumulative, 1 μg/ml, control = 100, read-out: Proteoglycans released during the 12 days of culture, %",127%
same,activity at 10 µg/mL,"[1]; Homo sapiens, Chondrocyte, 288 h, 1% Ultroser G, cumulative, 10 μg/ml, control = 100, read-out: Proteoglycans released during the 12 days of culture, %",150%
same,activity at 100 µg/mL,"[1]; Homo sapiens, Chondrocyte, 288 h, 1% Ultroser G, cumulative, 100 μg/ml, control = 100, read-out: Proteoglycans released during the 12 days of culture, %",170%
same,activity at 10 µg/mL,"[1]; Homo sapiens, Chondrocyte, foetal calf serum, Table 14, 0-4 days, 10 μg/ml, control = 100%, read-out: PG in the culture medium, % of control",120%
same,activity at 100 µg/mL,"[1]; Homo sapiens, Chondrocyte, foetal calf serum, Table 14, 0-4 days, 100 μg/ml, control = 100%, read-out: PG in the culture medium, % of control",160%
same,activity at 10 µg/mL,"[1]; Homo sapiens, Chondrocyte, foetal calf serum, Table 14, 4-8 days, 10 μg/ml, control = 100%, read-out: PG in the culture medium, % of control",118%
same,activity at 100 µg/mL,"[1]; Homo sapiens, Chondrocyte, foetal calf serum, Table 14, 4-8 days, 100 μg/ml, control = 100%, read-out: PG in the culture medium, % of control",121%
same,activity at 10 µg/mL,"[1]; Homo sapiens, Chondrocyte, foetal calf serum, Table 15, 0-4 days, 10 μg/ml, control = 100%, read-out: PG in the culture medium, % of control",132%
same,activity at 100 µg/mL,"[1]; Homo sapiens, Chondrocyte, foetal calf serum, Table 15, 0-4 days, 100 μg/ml, control = 100%, read-out: PG in the culture medium, % of control",140%
same,activity at 10 µg/mL,"[1]; Homo sapiens, Chondrocyte, foetal calf serum, Table 15, 4-8 days, 10 μg/ml, control = 100%, read-out: PG in the culture medium, % of control",117%
same,activity at 100 µg/mL,"[1]; Homo sapiens, Chondrocyte, foetal calf serum, Table 15, 4-8 days, 100 μg/ml, control = 100%, read-out: PG in the culture medium, % of control",138%
same,activity at 10 µg/mL,"[1]; Homo sapiens, Chondrocyte, foetal calf serum, Table 16, 0-8 days, 10 μg/ml, control = 100%, read-out: PG in the clusters over 8 days, % of control",117%
same,activity at 100 µg/mL,"[1]; Homo sapiens, Chondrocyte, foetal calf serum, Table 16, 0-8 days, 100 μg/ml, control = 100%, read-out: PG in the clusters over 8 days, % of control",132%
same,activity at 10 µg/mL,"[1]; Homo sapiens, Chondrocyte, foetal calf serum, Table 17, 0-8 days, 10 μg/ml, control = 100%, read-out: PG in the clusters over 8 days, % of control",125%
same,activity at 100 µg/mL,"[1]; Homo sapiens, Chondrocyte, foetal calf serum, Table 17, 0-8 days, 100 μg/ml, control = 100%, read-out: PG in the clusters over 8 days, % of control",139%
same,"PGs in the clusters, effect in words","[1]; foetal calf serum, 10 and 100 μg/ml",significantly increased
same,PG in the culture medium,"[1]; foetal calf serum, Table 14, 0-4 days, 10 μg/ml",7.8 ± 1.51 μg/μg DNA - 96 H
same,PG in the culture medium,"[1]; foetal calf serum, Table 14, 0-4 days, 100 μg/ml",10.4 ± 1.19 μg/μg DNA - 96 H
same,PG in the culture medium,"[1]; foetal calf serum, Table 14, 4-8 days, 10 μg/ml",2.34 ± 0.08 μg/μg DNA - 96 H
same,PG in the culture medium,"[1]; foetal calf serum, Table 14, 4-8 days, 100 μg/ml",2.40 ± 0.35 μg/μg DNA - 96 H
same,PG in the culture medium,"[1]; foetal calf serum, Table 15, 0-4 days, 10 μg/ml",7.0 ± 1.19 μg/μg DNA - 96 H
same,PG in the culture medium,"[1]; foetal calf serum, Table 15, 0-4 days, 100 μg/ml",7.5 ± 0.96 μg/μg DNA - 96 H
same,PG in the culture medium,"[1]; foetal calf serum, Table 15, 4-8 days, 10 μg/ml",2.0 ± 0.17 μg/μg DNA - 96 H
same,PG in the culture medium,"[1]; foetal calf serum, Table 15, 4-8 days, 100 μg/ml",2.4 ± 0.25 μg/μg DNA - 96 H
same,PG in the clusters over 8 days,"[1]; foetal calf serum, Table 16, 0-8 days, 10 μg/ml",915 ± 75 ng/μg DNA
same,PG in the clusters over 8 days,"[1]; foetal calf serum, Table 16, 0-8 days, 100 μg/ml",1035 ± 121 ng/μg DNA
same,PG in the clusters over 8 days,"[1]; foetal calf serum, Table 17, 0-8 days, 10 μg/ml",718.2 ± 62.61 ng/μg DNA
same,PG in the clusters over 8 days,"[1]; foetal calf serum, Table 17, 0-8 days, 100 μg/ml",799.5 ± 85.9 ng/μg DNA
same,% inhibition of the production of hydroxyl radicals,[2]; 10^-3 M,74%
same,% inhibition of the production of hydroxyl radicals,[2]; 10^-4 M,39%
same,% inhibition of the production of hydroxyl radicals,[2]; 10^-5 M,20%
same,"Production of free radicals from KMB, effect in words",[2]; Table 22,significantly inhibits
same,Direct reduction of ferricytochrome C,ferricytochrome C,powerful reducers of ferricytochrome C

# — patent US5670538A, “Use of prodelphinidins for obtaining medicaments intended for the treatment of arthrosis” (Laboratoires Dolisos, priority 1992, dated 1997)
